Data reported in US6156744A, “DT-diaphorase directed anti-tumor agents” (Cancer Research Campaign Tech (London), priority 1999, dated 2000).
Read-outs that look alike come from different tables or passages of the source.

Assays:
[1] = system: 69 human tumor cell lines; conditions: p<0.016; cited from earlier work
[2] = system: NSCLC and breast cancer cell lines; conditions: Beall et al. 1995; cited from earlier work
DNA [3] = conditions: literature; cited from earlier work
[4] = system: BE human colon carcinoma cells and H460 human non-small cell lung cancer cells; assay: MTT cytotoxicity, continuous four day exposure, BE versus H460 (FIG. 2); type: cell-based; conditions: four days, 5760 min
Description: (§1) The cell line BE is a human colon carcinoma that is described in Day et al., Carcinogenesis 1 :21-32 (1980).
The cytotoxicity of RH1 and MeDZQ to BE human colon carcinoma cells and H460 human non small cell lung cancer cells was determined. BE cells are DT-diaphorase null due to a mutation in the DT-diaphorase gene, while H460 cells have elevated DT-diaphorase levels (Traver et al., (1997) supra.). Cytotoxicity was determined using the MTT assay and cells were exposed to drug continuously throughout the four day assay.

[5] = system: cells under hypoxic conditions; conditions: hypoxic vs aerobic; cited from earlier work
[6] = system: CHO cell lines stably transfected with human DTD; conditions: Gustafson et al. 1996; cited from earlier work
DNA [7] = conditions: Lee et al. 1992; cited from earlier work
DTD = conditions: cited from earlier work; for pH dependence of metabolism by DTD / Substrate quality for DTD: literature
[8] = Beall et al. 1994, 1995; cited from earlier work
NSCLC xenografts = conditions: cited from earlier work
H460 and H596 cells = conditions: Ross et al. 1993; cited from earlier work
[9] = cited from earlier work
spheroid = conditions: literature; cited from earlier work
[10] = target: human recombinant DT-diaphorase (Homo sapiens, UniProt P15559); assay: NADH removal and quinone removal by recombinant human DT-diaphorase, HPLC; type: biochemical; conditions: for NADH Removal / Quinone Removal: 0.05 mM quinone, 10-100 ng/ml rhDT-diaphorase, 0.2 mM NADH, 25 mM Tris pH 7.4, n=3
Sequence of human recombinant DT-diaphorase (P15559 whole entry): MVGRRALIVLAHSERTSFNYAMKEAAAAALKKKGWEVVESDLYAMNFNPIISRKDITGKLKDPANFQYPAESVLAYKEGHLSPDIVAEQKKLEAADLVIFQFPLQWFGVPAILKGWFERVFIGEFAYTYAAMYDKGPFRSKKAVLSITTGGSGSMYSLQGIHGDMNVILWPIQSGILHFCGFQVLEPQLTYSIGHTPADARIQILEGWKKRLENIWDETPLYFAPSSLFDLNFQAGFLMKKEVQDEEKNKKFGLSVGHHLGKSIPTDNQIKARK
Description: The relative abilities of MeDZQ and RH1 to serve as substrates for human recombinant DT-diaphorase were determined. Both quinones (0.05 mM) were incubated with 10-100 ng/ml recombinant human DT-diaphorase and NADH (0.2 mM) in 25 mM Tris buffer, pH 7.4, containing 1 mM DETAPAC. NADH removal was measured by HPLC as described in Beall et al., (1995), supra.

BE and HT-29 cells = assay: MTT continuous challenge cytotoxicity, ratio BE/HT-29; type: cell-based, human; conditions: ratio of cytotoxicities, five days, 7200 min
Description: (§2) The cell lines used in this work were HT29, H460, H596, BE. These were obtained from the ATCC or from the European Collection for Animal Cell Cultures, ECACC. HT29 is a human colon cancer cell line and H460 is a human large cell lung carcinoma cell line. These two cell lines were used as they express relatively high levels of DTD. […] Continuous challenge cytotoxicity studies were carried out on these cells (600 per well) in 96 well plates using the MTT method. After five days, the absorbances were read on a multiscan plate reader at 540 and 640nm. Plots were then drawn for inhibition of cell growth as a function concentration. Each compound was tested in triplicate at each concentration on at least two occasions.

H596 and H460 cells = assay: MTT continuous challenge cytotoxicity, ratio H596/H460; type: cell-based, human; conditions: ratio of cytotoxicities, five days, 7200 min
Description: as §2

DNA [11] = assay: DNA crosslinking sequence specificity; type: biochemical
[12] = system: H460 and H596 human non-small cell lung cancer cells; assay: MTT cytotoxicity, 2 hour exposure, H460 versus H596 cells (FIG. 1); type: cell-based
Description: FIG. 1 compares the cytotoxicity of RH1 in human non small cell lung tumor cell lines with elevated DTD activity (H460) and those with no detectable DTD activity (H596). RH1 was 350 fold more toxic to tumor cells with elevated DTD activity than to DTD null cells.
Studies were conducted to determine the cytotoxicity of RH1 against human non small cell lung cancer cell lines. H596 cells are DT-diaphorase null due to a mutation in the DT-diaphorase gene, while H460 cells have elevated DT-diaphorase levels as described in Beall et al., (1995) supra and Traver et al., Br. J. Cancer, 75:69-75 (1997). The cell lines H460 and H596 are available from the American Tissue Type Culture Collection (ATCC), Rockville, Md. Cytotoxicity was determined after a 2 hour drug exposure in serumless medium using the MTT assay as described in detail in Beall et al., (1995), supra.

[13] = Solubility in aqueous solution; type: physicochemical; conditions: phosphate buffered saline; 25° C.
Description: (§3) RH1 is easily synthesized with very high purity (>99%). […] The RH1 solutions are very stable with a half life of RH1 in phosphate buffer (0.1 M, pH=7) of more than 2 days at 25° C.

[14] = Half-life in pharmacokinetics; conditions: attributed to free hydroxyl group / water solubility
[15] = Stability of RH1 in phosphate buffer; type: physicochemical
Description: as §3

CHO812 and CHOglyA cells = assay: Cytotoxicity of RH1 to CHOglyA and DTD-transfected CHO812 cells (FIG. 3); type: cell-based, chinese hamster
Description: as §1
Further studies were conducted to determine the cytotoxicity of RH1 to CHOglyA and CHO812 cells. CHOglyA cells have non detectable levels of DT-diaphorase, whereas CHO812 cells have elevated levels of DT-diaphorase as reported in Gustafson et al., (1996) supra. The original CHO cell lines were obtained from the American Type Culture Collection, Rockville, Md.

[16] = Bibby et al. 1993; cited from earlier work
DTD-rich cell lines = conditions: literature; cited from earlier work

SMILES: CC1=C(N2CC2)C(=O)C(C)=C(N2CC2)C1=O [MeDZQ, 2,5-diaziridinyl-3,6-dimethyl-1,4-benzoquinone]
- Correlation (r) between DTD activity and cytotoxicity [1]: 0.3033
- Correlation between DTD levels and cytotoxicity [2]: good correlation
- DNA damage after reduction (crosslinks, strand breaks) (DNA [3]): absolute requirement for reduction of the drug
- Ratio of cytotoxicities of IC50, BE (no DTD activity) to H460 (elevated DTD activity) [4]: 33
- Increase in cytotoxicity under hypoxic relative to aerobic conditions [5]: very modest increase in cytotoxicity
- Cytotoxicity as a result of transfecting DTD into CHO cells [6]: markedly increased
- DNA crosslinking sequence (DNA [7]): GNC sequences
- Effectiveness as a substrate for recombinant human DTD relative to mitomycin C (DTD; Beall et al. 1994, Ross et al. 1994): greater than 150 fold
- Inhibition / inactivation of DTD at higher pHs (DTD): does not inactivate DTD at higher pHs
- pH dependence of metabolism by DTD (DTD): pH-independent
- Stability of reactive hydroquinone metabolite [8]: appreciable stability
- Relationship between levels of reducing enzymes and efficacy in NSCLC xenografts (NSCLC xenografts; in vivo): confirmed the relationship between the levels of reducing enzymes and the efficacy
- Cytotoxicity to H596 and H460 cells in comparison to RH1 (H460 and H596 cells): less cytotoxic to both H596 and H460 cells
- Differential toxicity to H460 cells (versus H596) (H460 and H596 cells): 17 fold
- solubility [9]: poor solubility
- Activity / cytotoxicity in spheroid studies (spheroid): increased cytotoxicity
- NADH Removal [10]: 21.6 ± 4.0
- Quinone Removal [10]: 9.7 ± 2.2

SMILES: CC1=C(N2CC2)C(=O)C(COC(=O)c2ccccc2)=C(N2CC2)C1=O [Benzoyl, benzoyl ester of RH1]
- BE/HT-29 (BE and HT-29 cells): 0.1
- H596/H460 (H596 and H460 cells): 4

SMILES: CC1=C(N2CC2)C(=O)C(CO)=C(N2CC2)C1=O [RH1, 2,5-diaziridinyl-3-(hydroxymethyl)-6-methyl-1,4-benzoquinone]
- DNA crosslinking sequence (DNA [11]): GCC sequences
- Cytotoxicity to tumor cell lines with elevated DTD activity, compared with MeDZQ [12]: more cytotoxic to tumor cell lines with elevated DTD activity
- Selective killing of DTD-rich cells [12]: selectively kills cells rich in DTD
- Fold toxicity to tumor cells with elevated DTD activity (H460) relative to DTD null cells (H596) ([12]; 2 hour exposure, MTT, FIG. 1): 350 fold
- Ratio of cytotoxicities of IC50, BE (no DTD activity) to H460 (elevated DTD activity) [4]: 51
- solubility [13]: > 500 µg/mL
- BE/HT-29 (BE and HT-29 cells): 17.5
- Half-life in pharmacokinetics [14]: shorter half-life in pharmacokinetics
- Stability of solutions [15]: very stable
- half-life ([15]; 0.1 m phosphate buffer, 0.1 M, pH=7, 25° C.): > 48 h
- NADH Removal [10]: 45.2 ± 6.3
- Quinone Removal [10]: 28.2 ± 4.2
- Effectiveness as a substrate for DT-diaphorase, compared with MeDZQ ([10]; Example 2): more effective as a substrate for DT-diaphorase than MeDZQ
- Susceptibility of CHO-812 (DTD overexpressing) to cell killing relative to parent CHO-glyA (CHO812 and CHOglyA cells): more susceptible
- H596/H460 (H596 and H460 cells): 41

SMILES: Cn1c(/C=C/CO)c(CO)c2c1C(=O)C=C(N1CC1)C2=O [E09]
- DNA damage after reduction (crosslinks, strand breaks) (DNA [3]): exclusively form DNA strand breaks
- Substrate quality for DTD (DTD): efficiently reduced by DTD
- Ability to penetrate cells and cross cellular membranes [16]: poor ability
- Activity / cytotoxicity in spheroid studies (spheroid): not active

SMILES: CO[C@@]12[C@H](COC(N)=O)C3=C(C(=O)C(C)=C(N)C3=O)N1C[C@@H]1N[C@@H]12 [mitomycin C]
- Inhibition / inactivation of DTD at higher pHs (DTD): pH-dependent inhibition of DTD at higher pHs
- Substrate quality for DTD (DTD): very poor substrate for DTD
- pH dependence of metabolism by DTD (DTD): pH-dependent
- Susceptibility of NSCLC xenografts with high DTD activity versus SCLC xenografts with low DTD activity (NSCLC xenografts; literature): more susceptible

SMILES: CC(=O)OCC1=C(N2CC2)C(=O)C(C)=C(N2CC2)C1=O [Acetyl-, 2-Acetoxymethyl-3,6-diaziridinyl-5-methyl-1,4-benzoquinone]
- BE/HT-29 (BE and HT-29 cells): 5.2
- H596/H460 (H596 and H460 cells): 4.7

SMILES: CCOC(=O)NC1=C(N2CC2)C(=O)C(NC(=O)OCC)=C(N2CC2)C1=O [AZQ, Diaziquone]
- DNA damage after reduction (crosslinks, strand breaks) (DNA [3]): does not readily form DNA crosslinks after reduction by DTD
- Substrate quality for DTD (DTD): extremely poor substrate for DTD
- Selectivity for DTD-rich cell lines (DTD-rich cell lines): failed to show any selectivity for DTD-rich cell lines
